Assay results as given in ChEMBL document CHEMBL5223095, “Structure activity relationship of N-1 substituted 1,5-naphthyrid-2-one analogs of oxabicyclooctane-linked novel bacterial topoisomerase inhibitors as broad-spectrum antibacterial agents (Part-9)” (Bioorg Med Chem Lett, 2022).
In brackets after ≈: the same amount, converted by molar mass.

Assays:
Type in all cases: functional
Streptococcus pneumoniae = assay: Antibacterial activity against Streptococcus pneumoniae IID553 assessed as bacterial growth inhibition by CLSI protocol agar-based assay
Escherichia coli = assay: Antibacterial activity against Escherichia coli ATCC 25922 assessed as bacterial growth inhibition by CLSI protocol agar-based assay
Acinetobacter baumannii = assay: Antibacterial activity against Acinetobacter baumannii IID876 assessed as bacterial growth inhibition by CLSI protocol agar-based assay
Staphylococcus aureus = assay: Antibacterial activity against methicillin-resistant Staphylococcus aureus OITII-971 assessed as bacterial growth inhibition by CLSI protocol agar-based assay
Enterococcus faecium = assay: Antibacterial activity against Vanomycin-resistant Enterococcus faecium assessed as bacterial growth inhibition by CLSI protocol agar-based assay
Pseudomonas aeruginosa = assay: Antibacterial activity against Pseudomonas aeruginosa PAO1 assessed as bacterial growth inhibition by CLSI protocol agar-based assay

Compound | MIC (Streptococcus pneumoniae) | MIC (Escherichia coli) | MIC (Acinetobacter baumannii) | MIC (Staphylococcus aureus) | MIC (Enterococcus faecium) | MIC (Pseudomonas aeruginosa)
COc1ccc2nc(CNC34CCC(CCc5c(F)cnc6ccc(=O)n(CCO)c56)(CC3)OC4)c(F)cc2n1 | > 16 µg/mL | > 16 µg/mL | > 16 µg/mL | > 16 µg/mL | > 16 µg/mL | > 16 µg/mL
N#Cc1cnc2ccc(=O)n(CCO)c2c1CCC12CCC(NCc3ccc4c(n3)NC(=O)CO4)(CC1)CO2 | 1 µg/mL (≈ 1.88 µM) | 4 µg/mL (≈ 7.54 µM) | 1 µg/mL (≈ 1.88 µM) | 0.125 µg/mL (≈ 0.236 µM) | 4 µg/mL (≈ 7.54 µM) | 16 µg/mL (≈ 30.2 µM)
O=c1ccc2ncc(F)c(CCC34CCC(NCc5cn(-c6ncccn6)cn5)(CC3)CO4)c2n1CCO | > 32 µg/mL | > 32 µg/mL | > 32 µg/mL | > 32 µg/mL | > 32 µg/mL | > 128 µg/mL
COc1ccc2ncc(F)c(C[C@H](O)C34CCC(NCc5ccc6c(n5)NC(=O)CO6)(CC3)CO4)c2n1 | 0.05 µg/mL (≈ 0.0981 µM) | 2 µg/mL (≈ 3.93 µM) | 0.5 µg/mL (≈ 0.981 µM) | 0.02 µg/mL (≈ 0.0393 µM) | 0.5 µg/mL (≈ 0.981 µM) | 8 µg/mL (≈ 15.7 µM)
O=c1ccc2ncc(F)c(CCC34CCC(NCc5ccc6nonc6c5)(CC3)CO4)c2n1CCO | 32 µg/mL (≈ 64.8 µM) | > 64 µg/mL | 64 µg/mL (≈ 130 µM) | 2 µg/mL (≈ 4.05 µM) | 64 µg/mL (≈ 130 µM) | > 64 µg/mL
O=c1ccc2ncc(F)c(CCC34CCC(NCc5cnc(-c6ccccn6)s5)(CC3)CO4)c2n1CCO | > 32 µg/mL | > 32 µg/mL | > 32 µg/mL | > 32 µg/mL | > 32 µg/mL | > 16 µg/mL
O=c1ccc2ncc(F)c(CCC34CCC(NCc5ccc6nsnc6c5)(CC3)CO4)c2n1CCO | 1 µg/mL (≈ 1.96 µM) | 32 µg/mL (≈ 62.8 µM) | 4 µg/mL (≈ 7.85 µM) | 0.125 µg/mL (≈ 0.245 µM) | 8 µg/mL (≈ 15.7 µM) | > 64 µg/mL
O=c1ccc2ncc(F)c(CCC34CCC(NCc5cnc(-c6ccsc6)s5)(CC3)CO4)c2n1CCO | 2 µg/mL (≈ 3.7 µM) | > 32 µg/mL | > 32 µg/mL | 2 µg/mL (≈ 3.7 µM) | > 32 µg/mL | > 32 µg/mL
O=C1COc2ccc(CNC34CCC(CCc5c(F)cnc6ccc(=O)n(CCO)c56)(CC3)OC4)nc2N1 | 0.5 µg/mL (≈ 0.955 µM) | 2 µg/mL (≈ 3.82 µM) | 0.5 µg/mL (≈ 0.955 µM) | 0.063 µg/mL (≈ 0.12 µM) | 2 µg/mL (≈ 3.82 µM) | 8 µg/mL (≈ 15.3 µM)
NC(=O)Cn1c(=O)ccc2ncc(F)c(CCC34CCC(NCc5ccc6c(n5)NC(=O)CO6)(CC3)CO4)c21 | 4 µg/mL (≈ 7.45 µM) | 32 µg/mL (≈ 59.6 µM) | 64 µg/mL (≈ 119 µM) | 4 µg/mL (≈ 7.45 µM) | 64 µg/mL (≈ 119 µM) | 16 µg/mL (≈ 29.8 µM)
O=c1ccc2nc(CNC34CCC(CCc5c(F)cnc6ccc(=O)n(CCO)c56)(CC3)OC4)c(F)cc2[nH]1 | > 16 µg/mL | > 16 µg/mL | > 16 µg/mL | > 16 µg/mL | > 16 µg/mL | > 16 µg/mL
O=C1COc2ccc(CNC34CCC(CCc5ccnc6ccc(=O)n(CCO)c56)(CC3)OC4)nc2N1 | 4 µg/mL (≈ 7.91 µM) | 8 µg/mL (≈ 15.8 µM) | 8 µg/mL (≈ 15.8 µM) | 2 µg/mL (≈ 3.96 µM) | 16 µg/mL (≈ 31.6 µM) | 32 µg/mL (≈ 63.3 µM)
O=c1ccc2ncc(F)c3c2n1C[C@@]3(O)CC12CCC(NCc3cc4c(cn3)OCCO4)(CC1)CO2 | – | 16 µg/mL (≈ 32.4 µM) | – | 0.5 µg/mL (≈ 1.01 µM) | – | –
O=c1ccc2ncc(F)c(CCC34CCC(NC/C=C/c5cc(F)ccc5F)(CC3)CO4)c2n1CCO | 0.063 µg/mL (≈ 0.123 µM) | 2 µg/mL (≈ 3.89 µM) | 0.125 µg/mL (≈ 0.243 µM) | 0.031 µg/mL (≈ 0.0604 µM) | 2 µg/mL (≈ 3.89 µM) | 8 µg/mL (≈ 15.6 µM)
CNC(=O)Cn1c(=O)ccc2ncc(F)c(CCC34CCC(NCc5ccc6c(n5)NC(=O)CO6)(CC3)CO4)c21 | 1 µg/mL (≈ 1.82 µM) | 32 µg/mL (≈ 58.1 µM) | 64 µg/mL (≈ 116 µM) | 4 µg/mL (≈ 7.26 µM) | 16 µg/mL (≈ 29.1 µM) | 32 µg/mL (≈ 58.1 µM)
O=c1ccc2ncc(F)c(CCC34CCC(NCc5cc6c(cn5)OCCC6)(CC3)CO4)c2n1CCO | 0.25 µg/mL (≈ 0.492 µM) | 8 µg/mL (≈ 15.7 µM) | 1 µg/mL (≈ 1.97 µM) | 0.063 µg/mL (≈ 0.124 µM) | 4 µg/mL (≈ 7.86 µM) | > 64 µg/mL

Compound | MIC (Streptococcus pneumoniae) | MIC (Escherichia coli) | MIC (Acinetobacter baumannii) | MIC (Staphylococcus aureus) | MIC (Enterococcus faecium) | MIC (Pseudomonas aeruginosa)
O=c1ccc2ncc(F)c(CCC34CCC(NCc5cnc(-c6ccncc6)s5)(CC3)CO4)c2n1CCO | > 32 µg/mL | > 32 µg/mL | > 32 µg/mL | > 32 µg/mL | > 32 µg/mL | > 32 µg/mL
O=c1ccc2ncc(F)c(CCC34CCC(NCc5csc(-c6cccs6)n5)(CC3)CO4)c2n1CCO | 1 µg/mL (≈ 1.85 µM) | 64 µg/mL (≈ 118 µM) | 32 µg/mL (≈ 59.2 µM) | 0.5 µg/mL (≈ 0.925 µM) | 16 µg/mL (≈ 29.6 µM) | > 32 µg/mL
O=c1ccc2ncc(F)c(C[C@H](O)C34CCC(NCc5cc6c(cn5)OCCO6)(CC3)CO4)c2n1CCO | 2 µg/mL (≈ 3.8 µM) | 128 µg/mL (≈ 243 µM) | 64 µg/mL (≈ 122 µM) | 2 µg/mL (≈ 3.8 µM) | 32 µg/mL (≈ 60.8 µM) | > 128 µg/mL
O=c1ccc2ncc(F)c(CCC34CCC(NCc5cnc(-c6cccnc6)s5)(CC3)CO4)c2n1CCO | > 16 µg/mL | > 16 µg/mL | > 16 µg/mL | > 16 µg/mL | > 16 µg/mL | > 32 µg/mL
N#CCn1c(=O)ccc2ncc(F)c(CCC34CCC(NCc5ccc6c(n5)NC(=O)CO6)(CC3)CO4)c21 | 0.25 µg/mL (≈ 0.482 µM) | 1 µg/mL (≈ 1.93 µM) | 0.25 µg/mL (≈ 0.482 µM) | 0.016 µg/mL (≈ 0.0309 µM) | 2 µg/mL (≈ 3.86 µM) | 4 µg/mL (≈ 7.71 µM)
CS(=O)(=O)NCCn1c(=O)ccc2ncc(F)c(CCC34CCC(NCc5ccc6c(n5)NC(=O)CO6)(CC3)CO4)c21 | 1 µg/mL (≈ 1.66 µM) | 16 µg/mL (≈ 26.6 µM) | 16 µg/mL (≈ 26.6 µM) | 0.5 µg/mL (≈ 0.832 µM) | 8 µg/mL (≈ 13.3 µM) | 32 µg/mL (≈ 53.3 µM)
O=C1COc2ccc(CNC34CCC(CCc5c(F)cnc6ccc(=O)n(C/C=N/O)c56)(CC3)OC4)nc2N1 | 0.5 µg/mL (≈ 0.932 µM) | 4 µg/mL (≈ 7.45 µM) | 2 µg/mL (≈ 3.73 µM) | 0.25 µg/mL (≈ 0.466 µM) | 4 µg/mL (≈ 7.45 µM) | 8 µg/mL (≈ 14.9 µM)
O=c1ccc2ncc(F)c(CCC34CCC(NCCCc5cc(F)ccc5F)(CC3)CO4)c2n1CCO | 0.5 µg/mL (≈ 0.97 µM) | 16 µg/mL (≈ 31 µM) | 1 µg/mL (≈ 1.94 µM) | 0.125 µg/mL (≈ 0.242 µM) | 16 µg/mL (≈ 31 µM) | 64 µg/mL (≈ 124 µM)
O=C1COc2ccc(CNC34CCC([C@@H](O)Cc5c(F)cnc6ccc(=O)n(CCO)c56)(CC3)OC4)nc2N1 | 0.125 µg/mL (≈ 0.232 µM) | 32 µg/mL (≈ 59.3 µM) | 4 µg/mL (≈ 7.41 µM) | 0.031 µg/mL (≈ 0.0575 µM) | 2 µg/mL (≈ 3.71 µM) | 16 µg/mL (≈ 29.7 µM)
O=c1ccc2ncc(F)c(CCC34CCC(NCc5cc6c(cn5)OCCO6)(CC3)CO4)c2n1CCO | 0.5 µg/mL (≈ 0.979 µM) | 16 µg/mL (≈ 31.3 µM) | 4 µg/mL (≈ 7.83 µM) | 0.125 µg/mL (≈ 0.245 µM) | 2 µg/mL (≈ 3.92 µM) | > 16 µg/mL
COc1ccc2nc(CNC34CCC(CCc5c(F)cnc6ccc(=O)n(CCO)c56)(CC3)OC4)c(F)c(C)c2n1 | 32 µg/mL (≈ 56.6 µM) | 32 µg/mL (≈ 56.6 µM) | 32 µg/mL (≈ 56.6 µM) | 32 µg/mL (≈ 56.6 µM) | 32 µg/mL (≈ 56.6 µM) | 32 µg/mL (≈ 56.6 µM)
COc1ccc2ncc(F)c(CCC34CCC(NCc5ccc6c(n5)NC(=O)CO6)(CC3)CO4)c2n1 | – | 1 µg/mL (≈ 2.03 µM) | – | 0.016 µg/mL (≈ 0.0324 µM) | – | –
O=C1COc2ccc(CNC34CCC(C[C@]5(O)Cn6c(=O)ccc7ncc(F)c5c76)(CC3)OC4)nc2N1 | – | 4 µg/mL (≈ 7.88 µM) | – | 0.25 µg/mL (≈ 0.493 µM) | – | –
O=C(O)Cn1c(=O)ccc2ncc(F)c(CCC34CCC(NCc5ccc6c(n5)NC(=O)CO6)(CC3)CO4)c21 | 64 µg/mL (≈ 119 µM) | > 64 µg/mL | > 64 µg/mL | 16 µg/mL (≈ 29.8 µM) | > 64 µg/mL | > 64 µg/mL
CCOC(=O)Cn1c(=O)ccc2ncc(F)c(CCC34CCC(NCc5ccc6c(n5)NC(=O)CO6)(CC3)CO4)c21 | 1 µg/mL (≈ 1.77 µM) | 8 µg/mL (≈ 14.1 µM) | 1 µg/mL (≈ 1.77 µM) | 0.063 µg/mL (≈ 0.111 µM) | 8 µg/mL (≈ 14.1 µM) | 32 µg/mL (≈ 56.6 µM)
O=c1ccc2ncc(=O)n3c2n1C[C@H]3CN1CCC(NCc2cc3c(cn2)OCCC3)CC1 [GEPOTIDACIN] | – | 2 µg/mL (≈ 4.46 µM) | – | 0.25 µg/mL (≈ 0.557 µM) | – | –
